Assay results: the NIST ThermoML archive (doi:10.1016/j.jct.2018.08.004)

Test: xn = mol fraction of the nth substance listed
Settings: for surface tension liquid-gas: Maximal bubble pressure; for mass density: 100 kPa, Liquid, Vibrating tube method

CCCC[n+]1ccccc1.N#C[N-]C#N [1-butylpyridinium dicyanamide] + CC(C)O
Settings	mass density [kg/m3]	surface tension liquid-gas [mN/m]
288.15 K, x1 = 0.1008	857.57	23.3
288.15 K, x1 = 0.2007	906.69	25.7
288.15 K, x1 = 0.3005	944.56	26.9
288.15 K, x1 = 0.3999	974.5	28.5
288.15 K, x1 = 0.5005	999.39	30.5
288.15 K, x1 = 0.5998	1019.53	33.2
288.15 K, x1 = 0.7004	1036.66	35.9
288.15 K, x1 = 0.7972	1050.66	39.9
288.15 K, x1 = 0.9032	1063.81	45.5
288.15 K, x1 = 1	1074.97	56.3
293.15 K, x1 = 0.1008	853.79	22.8
293.15 K, x1 = 0.2007	903.11	25.2
293.15 K, x1 = 0.3005	941.13	26.7
293.15 K, x1 = 0.3999	971.16	28
293.15 K, x1 = 0.5005	996.12	30.2
293.15 K, x1 = 0.5998	1016.32	32.9
293.15 K, x1 = 0.7004	1033.49	35.7
293.15 K, x1 = 0.7972	1047.51	39.6
293.15 K, x1 = 0.9032	1060.69	45.2
293.15 K, x1 = 1	1071.9	56
298.15 K, x1 = 0.1008	849.98	22.3
298.15 K, x1 = 0.2007	899.51	24.8
298.15 K, x1 = 0.3005	937.68	26.2
298.15 K, x1 = 0.3999	967.82	27.8
298.15 K, x1 = 0.5005	992.86	29.9
298.15 K, x1 = 0.5998	1013.12	32.5
298.15 K, x1 = 0.7004	1030.32	35.3
298.15 K, x1 = 0.7972	1044.37	39.3
298.15 K, x1 = 0.9032	1057.57	44.9
298.15 K, x1 = 1	1068.83	55.7
303.15 K, x1 = 0.1008	846.14	22
303.15 K, x1 = 0.2007	895.9	24.5
303.15 K, x1 = 0.3005	934.24	25.9
303.15 K, x1 = 0.3999	964.49	27.5
303.15 K, x1 = 0.5005	989.61	29.6
303.15 K, x1 = 0.5998	1009.92	32.3
303.15 K, x1 = 0.7004	1027.16	35.1
303.15 K, x1 = 0.7972	1041.24	39.1
303.15 K, x1 = 0.9032	1054.46	44.7
303.15 K, x1 = 1	1065.76	55.5
308.15 K, x1 = 0.1008	842.28	21.6
308.15 K, x1 = 0.2007	892.3	24.1
308.15 K, x1 = 0.3005	930.8	25.5
308.15 K, x1 = 0.3999	961.18	27.1
308.15 K, x1 = 0.5005	986.37	29.3
308.15 K, x1 = 0.5998	1006.74	32
308.15 K, x1 = 0.7004	1024.02	34.8
308.15 K, x1 = 0.7972	1038.13	38.8
308.15 K, x1 = 0.9032	1051.37	44.4
308.15 K, x1 = 1	1062.7	55.2
313.15 K, x1 = 0.1008	838.39	21.3
313.15 K, x1 = 0.2007	888.69	23.8
313.15 K, x1 = 0.3005	927.36	25.2
313.15 K, x1 = 0.3999	957.86	26.8
313.15 K, x1 = 0.5005	983.14	29
313.15 K, x1 = 0.5998	1003.56	31.7
313.15 K, x1 = 0.7004	1020.89	34.5
313.15 K, x1 = 0.7972	1035.03	38.5
313.15 K, x1 = 0.9032	1048.3	44.1
313.15 K, x1 = 1	1059.66	54.9
318.15 K, x1 = 0.1008	834.48	20.8
318.15 K, x1 = 0.2007	885.06	23.4
318.15 K, x1 = 0.3005	923.93	24.9
318.15 K, x1 = 0.3999	954.55	26.5
318.15 K, x1 = 0.5005	979.93	28.6
318.15 K, x1 = 0.5998	1000.4	31.4
318.15 K, x1 = 0.7004	1017.77	34.2
318.15 K, x1 = 0.7972	1031.94	38.2
318.15 K, x1 = 0.9032	1045.24	43.8
318.15 K, x1 = 1	1056.64	54.5

CCCC[n+]1ccccc1.N#C[N-]C#N [1-butylpyridinium dicyanamide] + CCCO
Settings	mass density [kg/m3]	surface tension liquid-gas [mN/m]
288.15 K, x1 = 0.1001	872.25	26.5
288.15 K, x1 = 0.2008	919.12	27.9
288.15 K, x1 = 0.3008	954.79	29.5
288.15 K, x1 = 0.4009	982.76	31.7
288.15 K, x1 = 0.4994	1005.24	33.1
288.15 K, x1 = 0.5998	1023.96	35.7
288.15 K, x1 = 0.6976	1039.92	38.4
288.15 K, x1 = 0.7974	1052.61	41.2
288.15 K, x1 = 0.903	1064.59	45.8
288.15 K, x1 = 1	1074.97	56.3
293.15 K, x1 = 0.1001	868.53	26.1
293.15 K, x1 = 0.2008	915.57	27.6
293.15 K, x1 = 0.3008	951.37	29.1
293.15 K, x1 = 0.4009	979.42	31.3
293.15 K, x1 = 0.4994	1001.98	32.8
293.15 K, x1 = 0.5998	1020.75	35.3
293.15 K, x1 = 0.6976	1036.74	38
293.15 K, x1 = 0.7974	1049.46	41
293.15 K, x1 = 0.903	1061.47	45.6
293.15 K, x1 = 1	1071.9	56
298.15 K, x1 = 0.1001	864.79	25.6
298.15 K, x1 = 0.2008	912.01	27.1
298.15 K, x1 = 0.3008	947.94	28.8
298.15 K, x1 = 0.4009	976.09	31.1
298.15 K, x1 = 0.4994	998.72	32.5
298.15 K, x1 = 0.5998	1017.54	35
298.15 K, x1 = 0.6976	1033.57	37.7
298.15 K, x1 = 0.7974	1046.31	40.7
298.15 K, x1 = 0.903	1058.35	45.2
298.15 K, x1 = 1	1068.83	55.7
303.15 K, x1 = 0.1001	861.04	25.2
303.15 K, x1 = 0.2008	908.45	26.7
303.15 K, x1 = 0.3008	944.53	28.4
303.15 K, x1 = 0.4009	972.76	30.7
303.15 K, x1 = 0.4994	995.47	32.2
303.15 K, x1 = 0.5998	1014.34	34.7
303.15 K, x1 = 0.6976	1030.42	37.4
303.15 K, x1 = 0.7974	1043.18	40.4
303.15 K, x1 = 0.903	1055.25	45
303.15 K, x1 = 1	1065.76	55.5
308.15 K, x1 = 0.1001	857.28	24.7
308.15 K, x1 = 0.2008	904.9	26.4
308.15 K, x1 = 0.3008	941.11	28.1
308.15 K, x1 = 0.4009	969.44	30.4
308.15 K, x1 = 0.4994	992.23	31.7
308.15 K, x1 = 0.5998	1011.15	34.4
308.15 K, x1 = 0.6976	1027.27	37.1
308.15 K, x1 = 0.7974	1040.07	40.1
308.15 K, x1 = 0.903	1052.16	44.7
308.15 K, x1 = 1	1062.7	55.2
313.15 K, x1 = 0.1001	853.51	24.4
313.15 K, x1 = 0.2008	901.33	26
313.15 K, x1 = 0.3008	937.71	27.7
313.15 K, x1 = 0.4009	966.13	30
313.15 K, x1 = 0.4994	989	31.5
313.15 K, x1 = 0.5998	1007.98	34.1
313.15 K, x1 = 0.6976	1024.14	36.8
313.15 K, x1 = 0.7974	1036.96	39.8
313.15 K, x1 = 0.903	1049.09	44.4
313.15 K, x1 = 1	1059.66	54.9
318.15 K, x1 = 0.1001	849.73	24
318.15 K, x1 = 0.2008	897.78	25.6
318.15 K, x1 = 0.3008	934.3	27.3
318.15 K, x1 = 0.4009	962.85	29.6
318.15 K, x1 = 0.4994	985.79	31.2
318.15 K, x1 = 0.5998	1004.82	33.8
318.15 K, x1 = 0.6976	1021.02	36.6
318.15 K, x1 = 0.7974	1033.88	39.5
318.15 K, x1 = 0.903	1046.03	44.1
318.15 K, x1 = 1	1056.64	54.5
